Columns and labels:
TLR8 = target: T1, TLR8 (Homo sapiens, UniProt Q9NR97); test: TLR8 human PBMC cell-based assay (antagonist, Compound A stimulated cytokine release); details: human PBMCs; TLR8 agonist Compound A 800 nM, 6 hours; cytokines (TNFa and IL 12p40) in supernatant; read-out: TLR-8 EC50
T1 construct: Human peripheral blood mononuclear cells (PBMCs) consist of lymphocytes, monocytes and dendritic cells that express TLR7, TLR8 and TLR9; endogenous in cells; host or cells: cryopreserved human PBMCs from healthy donors
T1 sequence (Q9NR97 27-1041): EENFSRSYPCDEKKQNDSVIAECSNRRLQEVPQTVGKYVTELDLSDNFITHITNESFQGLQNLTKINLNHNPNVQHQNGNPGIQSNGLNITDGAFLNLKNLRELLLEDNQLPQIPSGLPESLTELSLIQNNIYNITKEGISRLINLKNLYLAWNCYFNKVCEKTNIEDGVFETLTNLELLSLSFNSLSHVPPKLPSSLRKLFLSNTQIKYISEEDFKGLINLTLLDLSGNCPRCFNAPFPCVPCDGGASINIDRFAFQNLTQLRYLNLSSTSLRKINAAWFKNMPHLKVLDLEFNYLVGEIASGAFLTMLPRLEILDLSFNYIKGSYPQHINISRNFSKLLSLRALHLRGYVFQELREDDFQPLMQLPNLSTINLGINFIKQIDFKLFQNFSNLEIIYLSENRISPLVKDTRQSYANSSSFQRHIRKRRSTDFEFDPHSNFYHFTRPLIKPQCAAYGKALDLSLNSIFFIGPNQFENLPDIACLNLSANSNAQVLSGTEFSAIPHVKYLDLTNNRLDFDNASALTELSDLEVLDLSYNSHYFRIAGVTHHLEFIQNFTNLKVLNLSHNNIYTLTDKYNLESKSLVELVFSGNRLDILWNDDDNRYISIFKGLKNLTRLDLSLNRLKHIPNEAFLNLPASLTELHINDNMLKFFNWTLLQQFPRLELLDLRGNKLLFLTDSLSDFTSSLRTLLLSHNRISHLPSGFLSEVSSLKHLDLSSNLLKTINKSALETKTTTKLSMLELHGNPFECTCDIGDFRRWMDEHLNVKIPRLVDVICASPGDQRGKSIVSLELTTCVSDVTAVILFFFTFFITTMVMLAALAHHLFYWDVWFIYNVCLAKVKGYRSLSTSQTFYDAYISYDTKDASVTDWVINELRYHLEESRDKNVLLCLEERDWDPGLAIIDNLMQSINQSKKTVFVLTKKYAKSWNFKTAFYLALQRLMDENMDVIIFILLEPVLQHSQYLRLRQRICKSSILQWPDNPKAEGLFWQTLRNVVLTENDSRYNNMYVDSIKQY
Summary of the method: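 Cryopreserved donor PBMCs (100,000/well, RPMI + 10% FBS) were preincubated 1 h with antagonist (10-point dose response, quadruplicate), then stimulated with Compound A (800 nM final) for 6 h at 37 °C. TNFa and IL-12p40 in supernatants were measured by electrochemiluminescence; sigmoidal fits gave EC50.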

TLR7 = target: T2, TLR7 (Homo sapiens, UniProt Q9NYK1); test: TLR7 human PBMC cell-based assay (antagonist, GS-986 stimulated cytokine release); details: human PBMCs; TLR7 agonist GS-986 400 nM, 6 hours; cytokines (IL-6 and IFNα) in supernatant; read-out: TLR-7 EC50
T2 construct: Human peripheral blood mononuclear cells (PBMCs) consist of lymphocytes, monocytes and dendritic cells that express TLR7, TLR8 and TLR9; endogenous in cells; host or cells: cryopreserved human PBMCs from healthy donors
T2 sequence (Q9NYK1 27-1049): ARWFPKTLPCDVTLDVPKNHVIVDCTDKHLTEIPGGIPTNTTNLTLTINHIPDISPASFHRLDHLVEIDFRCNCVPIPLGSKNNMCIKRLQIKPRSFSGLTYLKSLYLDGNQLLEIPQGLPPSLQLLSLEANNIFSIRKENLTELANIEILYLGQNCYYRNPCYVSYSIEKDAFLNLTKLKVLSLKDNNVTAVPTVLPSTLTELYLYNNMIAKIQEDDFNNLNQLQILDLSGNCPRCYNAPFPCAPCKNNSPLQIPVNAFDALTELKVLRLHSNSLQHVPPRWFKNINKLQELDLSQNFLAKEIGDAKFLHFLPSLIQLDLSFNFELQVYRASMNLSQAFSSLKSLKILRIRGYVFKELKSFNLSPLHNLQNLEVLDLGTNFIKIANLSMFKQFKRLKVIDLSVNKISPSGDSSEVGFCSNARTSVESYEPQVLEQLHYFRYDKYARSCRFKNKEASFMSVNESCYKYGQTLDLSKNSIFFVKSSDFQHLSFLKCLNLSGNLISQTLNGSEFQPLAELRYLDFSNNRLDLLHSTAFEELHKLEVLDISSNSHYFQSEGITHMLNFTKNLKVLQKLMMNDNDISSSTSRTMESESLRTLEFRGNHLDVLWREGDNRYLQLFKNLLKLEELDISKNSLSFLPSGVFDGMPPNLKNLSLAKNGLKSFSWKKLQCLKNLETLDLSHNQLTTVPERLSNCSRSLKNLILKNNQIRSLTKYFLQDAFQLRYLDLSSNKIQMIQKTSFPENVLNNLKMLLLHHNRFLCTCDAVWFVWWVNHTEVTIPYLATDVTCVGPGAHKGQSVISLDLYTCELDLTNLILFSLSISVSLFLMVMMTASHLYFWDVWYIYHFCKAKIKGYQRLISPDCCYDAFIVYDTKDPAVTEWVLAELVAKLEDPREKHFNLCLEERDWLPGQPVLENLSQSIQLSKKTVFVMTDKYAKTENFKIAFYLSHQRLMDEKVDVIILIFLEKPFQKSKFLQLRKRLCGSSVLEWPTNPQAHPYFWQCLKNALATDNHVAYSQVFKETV
Summary of the method: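 EC50 derived by sigmoidal fitting of IL-6 and IFNα levels, quantified by electrochemiluminescence in supernatants of human PBMCs given 400 nM GS-986 for 6 h. Cells (100,000/well in RPMI-1640, 10% FBS) had received test antagonist 1 h beforehand, 10 doses in quadruplicate, at 37 °C.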

Row | EC50 (TLR8) | EC50 (TLR7) | Structure (SMILES)
1 | 0.8 nM | 0.1 nM | Cc1cc(-c2[nH]c3cc(C(=O)N4CCC[C@H]5NCCC[C@H]54)sc3c2C(C)C)cn2ncnc12 [Example 110]
2 | 4.48 nM | 0.87 nM | Cc1cc(-c2[nH]c3cc(C4CCC5CNCCC5C4)sc3c2C(C)C)cn2ncnc12 (stereo not shown) [Example 281]
3 | 314 nM | 1.4 nM | Cc1c(C(=O)N(C)C2CCNCC2)sc2c(C(C)C)c(-c3cc(C)c4ncnn4c3)[nH]c12 [Example 241]
4 | 17.9 nM | 0.43 nM | Cc1cc(-c2[nH]c3cc(C4CCC5(CC4)CCN(CC(N)=O)CC5)sc3c2C(C)C)cn2ncnc12 [Example 290]
5 | 0.6 nM | 4.5 nM | Cc1cc(-c2[nH]c3cc(C4CCN(Cc5ccn(C)n5)CC4)sc3c2C(C)C)cn2ncnc12 [Example 194]
6 | 2.8 nM | 2.7 nM | Cc1cc(-c2[nH]c3cc(-c4nnc(C5CCN(CC(N)=O)CC5)s4)sc3c2C(C)C)cn2ncnc12 [Example 168]
7 | 1.7 nM | 4.9 nM | CN[C@H]1CCN(C(=O)c2cc3[nH]c(-c4cc(C)c5ncnn5c4)c(C(C)C)c3s2)C1 [Example 73]
8 | 52.7 nM | 14 nM | Cc1cc(-c2[nH]c3cc(C(=O)N(C4CCC4)C4CCN(CC(N)=O)CC4)sc3c2C(C)C)cn2ncnc12 [Example 167]
9 | 0.7 nM | 0.6 nM | Cc1cc(-c2[nH]c3cc(-c4ccc5c(c4)CC(N)C5)sc3c2C(C)C)cn2ncnc12 (stereo not shown) [Example 227]
10 | 1.6 nM | 1.8 nM | Cc1cc(-c2[nH]c3cc(-c4cn(C5CCN(CCO)CC5)nn4)sc3c2C(C)C)cn2ncnc12 [Example 264, 2-(4-(4-(6-isopropyl-5-(8-methyl-[1,2,4]triazolo[1,5-a]pyridin-6-yl)-4H-thieno[3,2-b]pyrrol-2-yl)-1H-1,2,3-triazol-1-yl)piperidin-1-yl)ethan-1-ol]
11 | 5.7 nM | 4.8 nM | Cc1cc(-c2[nH]c3cc(C4CCCNC4)sc3c2C(C)C)cn2ncnc12 (stereo not shown) [Example 155]
12 | 4.7 nM | 1 nM | Cc1cc(-c2[nH]c3cc(C(=O)N(C)CCCN(C)C)sc3c2C(C)C)cn2ncnc12 [Example 94]
13 | 10.6 nM | 7.8 nM | Cc1cc(-c2[nH]c3cc(C(=O)N4CCC[C@@H]4CN(C)C)sc3c2C(C)C)cn2ncnc12 [Example 104]
14 | 12.9 nM | 0.2 nM | Cc1cc(-c2[nH]c3cc(C4CC5CNCC5C4)sc3c2C(C)C)cn2ncnc12 (stereo not shown) [Example 158]
15 | 7.49 nM | 0.09 nM | Cc1cc(-c2[nH]c3cc([C@@H]4C[C@H]5CC[C@@H](C4)N5)sc3c2C(C)C)cn2ncnc12 [Example 307, 2-((1R,3s,5S)-8-azabicyclo[3.2.1]octan-3-yl)-6-isopropyl-5-(8-methyl-[1,2,4]triazolo[1,5-a]pyridin-6-yl)-4H-thieno[3,2-b]pyrrole]
16 | 11.5 nM | 0.7 nM | Cc1cc(-c2[nH]c3cc(C(=O)N(C)C4CCN(C(=O)CN(C)C)CC4)sc3c2C(C)C)cn2ncnc12 [Example 180]

Row | EC50 (TLR8) | EC50 (TLR7) | Structure (SMILES)
17 | 1 nM | 0.2 nM | Cc1cc(-c2[nH]c3cc(C4CCC5(CC4)CN(CCO)C5)sc3c2C(C)C)cn2ncnc12 [Example 191]
18 | 0.5 nM | 0.4 nM | Cc1c(-c2[nH]c3cc(-c4ccc(N5CCNCC5)nc4)sc3c2C(C)C)cn2ncnc2c1C [Example 228]
19 | 11.2 nM | 0.6 nM | Cc1cc(-c2[nH]c3cc(C4CCC5(CNC5)C4)sc3c2C(C)C)cn2ncnc12 (stereo not shown) [Example 162]
20 | 1 nM | 0.2 nM | Cc1cc(-c2[nH]c3cc(C4CCC5(CC4)CN(CC(N)=O)C5)sc3c2C(C)C)cn2ncnc12 [Example 177]
21 | 78.8 nM | 2.2 nM | Cc1cc(-c2[nH]c3cc(C(=O)N4C[C@@H](N)CC[C@@H]4C)sc3c2C(C)C)cn2ncnc12 [Example 101]
22 | 35 nM | 45.2 nM | Cc1cc(-c2[nH]c3cc(C(=O)N(C)CCN4CCOCC4)sc3c2C(C)C)cn2ncnc12 [Example 95]
23 | 17.7 nM | 17.8 nM | Cc1cc(-c2[nH]c3cc(C(=O)N(C)[C@@H]4CCN(C5CCC5)C[C@@H]4F)sc3c2C(C)C)cn2ncnc12 [Example 83]
24 | 1.19 nM | 0.14 nM | Cc1cc(-c2[nH]c3cc(C4CCC5(C4)CN(CC(N)=O)C5)sc3c2C(C)C)cn2ncnc12 (racemic) [Example 295, 2-(6-(6-Isopropyl-5-(8-methyl-[1,2,4]triazolo[1,5-a]pyridin-6-yl)-4H-thieno[3,2-b]pyrrol-2-yl)-2-azaspiro[3.4]octan-2-yl)acetamide]
25 | 19.8 nM | 0.6 nM | Cc1cc(-c2[nH]c3cc(C(=O)N4CCC[C@@H]5NCC[C@@H]54)sc3c2C(C)C)cn2ncnc12 [Example 93]
26 | 11.2 nM | 0.6 nM | Cc1cc(-c2[nH]c3cc(C(=O)N(C)[C@H]4CCNC4)sc3c2C(C)C)cn2ncnc12 [Example 39]
27 | 33 nM | 12.5 nM | Cc1cc(-c2[nH]c3cc(C(=O)N(C)[C@H]4CCN(CC(N)=O)C4)sc3c2C(C)C)cn2ncnc12 [Example 179]
28 | 1.8 nM | 0.2 nM | Cc1cc(-c2[nH]c3cc(C4CCC(N5CCC(F)C5)CC4)sc3c2C(C)C)cn2ncnc12 (stereo not shown) [Example 256, 2-(4-(3-fluoropyrrolidin-1-yl)cyclohexyl)-6-isopropyl-5-(8-methyl-[1,2,4]triazolo[1,5-a]pyridin-6-yl)-4H-thieno[3,2-b]pyrrole]
29 | 0.78 nM | 2.78 nM | Cc1c(-c2[nH]c3cc(C4CCN(CC(N)=O)CC4)sc3c2C(C)C)cn2ncnc2c1C [Example 279]
30 | 6.7 nM | 21 nM | Cc1cc(-c2[nH]c3cc(C(=O)N4C[C@H]5NCCO[C@@H]5C4)sc3c2C(C)C)cn2ncnc12 [Example 131]
31 | 0.3 nM | 1.2 nM | Cc1cc(-c2[nH]c3cc(C(=O)N4CCN[C@@H](C)C4)sc3c2C(C)C)cn2ncnc12 [Example 125]
32 | 0.6 nM | 1.6 nM | Cc1cc(-c2[nH]c3cc(C4CCN(CCO)CC4)sc3c2C(C)C)cn2ncnc12 [Example 187, 2-(4-(6-isopropyl-5-(8-methyl-[1,2,4]triazolo[1,5-a]pyridin-6-yl)-4H-thieno[3,2-b]pyrrol-2-yl)piperidin-1-yl)ethan-1-ol]

Source: US20240217990A1 (Gilead Sciences, Inc., priority 2021, published 2024)
